Results published in US20150284353A1, “Sesquiterpene lactone-based pharmaceutical composition for treating gastrointestinal diseases” (CHO DANG PHARM. CO., LTD., priority 2012, published 2015).
“Also recorded” adds a separate entry of the source. Marks after values point to notes of the source that are not given here.

What was measured:
[1] = tested on: HCl-Ethanol inducing gastritis model; assay: HCl-Ethanol inducing gastritis model; format: in vivo, white rats; conditions: for Lesion inhibition rate: Table 2, ineffective compounds, dose not given; for ED50: regression analysis, read-out: 50% effective dose (ED50)
Protocol: After white rats have been fasted for 24 hours, CD-101, CD-102 and CD-103 compound have been orally administered according to method disclosed in Mizui et al., Jap. J. Pharmacol. 33: pp. 939-945 (1983). After 1 hour, 1.5 ml of 60% ethanol including 150 mM HCl has been orally administered to each animal. 1 hour later, animals have been sacrificed by cervical dislocation. After removing the stomach, the stomach has been fixed by injection of 13 ml of 2% formalin for 1 hour. After fixed stomach has been spread out, the lesion area has been measured using the photo by digital camera. Computer program Image J 1.38 (NIH, Bethesda, Md.) has been applied for measuring gastric lesion area (mm^2). The lesion inhibition rate has been calculated according to following equation. Further, 50% effective dose (ED50) has been also calculated using regression analysis.
Lesion inhibition rate(%)={gastric lesion area of control group(mm^2)−gastric lesion area of drug administration group(mm^2)}/gastric lesion area of control group(mm^2)×100

[2] = tested on: Chinese hamster lung (CHL) cell; assay: Chromosomal aberration test; format: cell-based; conditions: for induction of chromosomal aberration: CHL cell
Description: For measuring the induction of chromosomal aberration, the chromosomal aberration test has been carried out using Chinese hamster lung (CHL) cell. 2 kinds of methods have been adopted, such as, metabolic activation method (+S9) using metabolic activation system and direct method (−S9) without metabolic activation system.
For determining the test material reacting concentration, the cell growth inhibition test has been carried out. The test material has been dissolved and diluted in dimethyl sulfoxide (DMSO). Regardless of metabolic activation system, 12 concentration steps (2.43, 4.87, 9.75, 19.5, 39.1, 78.1, 156.3, 312.5, 625, 1250, 2500, 5000 μg/ml) of test material have been prepared. The cells have been cultured for 24 hours as the same way of main test. […] The medium has been further cultured for 18 hours.
Based upon the data of cell growth inhibition test, maximum concentration has been determined when the cell growth has been inhibited up to 50% as the relative cell numbers.
Regardless of metabolic activation system, the test materials have been prepared after 24 hours from the initiation of test. Then, the number of chromosomal aberration has been counted.

[3] = tested on: indomethacin inducing stomach ulcer model; assay: indomethacin inducing stomach ulcer model; format: in vivo, white rats; conditions: oral; for ED50: regression analysis, read-out: 50% effective dose (ED50)
Protocol: After white rats have been fasted for 24 hours, CD-101, CD-102 and CD-103 compound have been orally administered according to method disclosed in Yamasaki et al., Jap. J. Pharmacol. 49: pp. 441-448 (1989). After 1 hour, indomethacin (50 mg/kg) has been orally administered to each animal. After fasting for 5 hours, animals have been sacrificed by cervical dislocation. After removing the stomach, the stomach has been fixed by injection of 13 ml of 2% formalin for 1 hour. After fixed stomach has been spread out, the lesion area has been measured using the photo by digital camera. Computer program Image J 1.38 (NIH, Bethesda, Md.) has been applied for measuring gastric lesion area (mm^2). The lesion inhibition rate and 50% effective dose (ED50) have been calculated as the same manner of HCl-EtOH model.

[4] = Rattus norvegicus, oral, dose 1 mg/kg, read-out: Lesion inhibition rate
[5] = Rattus norvegicus, oral, dose 3 mg/kg, read-out: Lesion inhibition rate
[6] = Rattus norvegicus, oral, dose 10 mg/kg, read-out: Lesion inhibition rate
[7] = Rattus norvegicus, dose 1 mg/kg, read-out: Lesion inhibition rate
[8] = Rattus norvegicus, dose 3 mg/kg, read-out: Lesion inhibition rate
[9] = Rattus norvegicus, dose 10 mg/kg, read-out: Lesion inhibition rate

CO[C@]1(C)CC[C@H]2C(CN(C)CCO)C(=O)O[C@@H]2[C@@H](O)[C@]2(C)CC[C@H]21 (stereo partly drawn)
Lesion inhibition rate [1]: no effect

C=C1C(=O)O[C@@H]2[C@@H]3[C@@H](CC[C@@]3(C)O)[C@](C)(OC)CC[C@@H]12 [CD-103]
Results (chromosomal aberration) ([2]; +S9, dose 2.5 μg/ml): negative | Results (chromosomal aberration) ([2]; +S9, dose 5 μg/ml): negative | Results (chromosomal aberration) ([2]; +S9, dose 10 μg/ml): negative | induction of chromosomal aberration [2]: do not induce the chromosomal aberration | Results (chromosomal aberration) ([2]; −S9, dose 0.625 μg/ml): negative | Results (chromosomal aberration) ([2]; −S9, dose 1.25 μg/ml): negative | Results (chromosomal aberration) ([2]; −S9, dose 2.5 μg/ml): negative | inhibition at 30 mg/kg ([1]; Rattus norvegicus, oral, 30 mg/kg administration group, read-out: lesion inhibition rate): 99.5% | inhibition at 1 mg/kg [1, 4]: 56.9% | inhibition at 3 mg/kg [1, 5]: 66.9% | inhibition at 10 mg/kg [1, 6]: 99.5% | ED50 ([1]; Rattus norvegicus, oral): 2.55 mg/kg | Gastric lesion area ([1]; oral, dose 1 mg/kg): 80.8 ± 19.4* mm^2 | Gastric lesion area ([1]; oral, dose 3 mg/kg): 62.1 ± 32.2* mm^2 | Gastric lesion area ([1]; oral, dose 10 mg/kg): 1.0 ± 0.4* mm^2 | inhibition at 1 mg/kg [3, 7]: 37.9% | inhibition at 3 mg/kg [3, 8]: 57.3% | inhibition at 10 mg/kg [3, 9]: 74% | ED50 ([3]; Rattus norvegicus): 2.06 mg/kg | Gastric lesion area ([3]; dose 1 mg/kg): 37.2 ± 7.0 mm^2 | Gastric lesion area ([3]; dose 3 mg/kg): 25.6 ± 4.7* mm^2 | Gastric lesion area ([3]; dose 10 mg/kg): 15.6 ± 3.1* mm^2

C=C1C(=O)O[C@@H]2[C@@H](O)[C@]3(C)CC[C@H]3[C@](C)(OC)CC[C@@H]12 [CD-101]
Results (chromosomal aberration) ([2]; +S9, dose 10 μg/ml): negative | Results (chromosomal aberration) ([2]; +S9, dose 20 μg/ml): negative | Results (chromosomal aberration) ([2]; +S9, dose 40 μg/ml): negative | induction of chromosomal aberration [2]: neither cytotoxicity nor chromosomal aberration; also recorded: do not induce the chromosomal aberration | Results (chromosomal aberration) ([2]; −S9, dose 2.5 μg/ml): negative | Results (chromosomal aberration) ([2]; −S9, dose 5 μg/ml): negative | Results (chromosomal aberration) ([2]; −S9, dose 10 μg/ml): negative | inhibition at 1 mg/kg [1, 4]: 42.3% | inhibition at 3 mg/kg [1, 5]: 74.7% | inhibition at 10 mg/kg [1, 6]: 91.8% | ED50 ([1]; Rattus norvegicus, oral): 1.24 ± 0.1 mg/kg | Gastric lesion area ([1]; oral, dose 1 mg/kg): 135.1 ± 43.1 mm^2 | Gastric lesion area ([1]; oral, dose 3 mg/kg): 59.3 ± 23.5* mm^2 | Gastric lesion area ([1]; oral, dose 10 mg/kg): 19.2 ± 11.7* mm^2 | inhibition at 1 mg/kg [3, 7]: 26.9% | inhibition at 3 mg/kg [3, 8]: 56.6% | inhibition at 10 mg/kg [3, 9]: 73.1% | ED50 ([3]; Rattus norvegicus): 2.78 ± 0.1 mg/kg | Gastric lesion area ([3]; dose 1 mg/kg): 43.8 ± 7.7 mm^2 | Gastric lesion area ([3]; dose 3 mg/kg): 26.0 ± 4.7* mm^2 | Gastric lesion area ([3]; dose 10 mg/kg): 16.1 ± 4.8* mm^2

CO[C@]1(C)CC[C@H]2C(CN(C)CCO)C(=O)O[C@@H]2[C@@H]2[C@H]1CC[C@@]2(C)O (stereo partly drawn)
Lesion inhibition rate [1]: no effect

CC1=C2C3OC(=O)[C@@H](C)[C@@H]3CC[C@@]2(C)C=CC1=O (stereo partly drawn)
Lesion inhibition rate [1]: no effect

O=C(NC(Cc1cc(=O)[nH]c2ccccc12)C(=O)O)c1ccc(Cl)cc1 (stereo not drawn) [Rebamipide, reference compound]
inhibition at 50 mg/kg ([1]; Rattus norvegicus, oral, dose 50 mg/kg, read-out: Lesion inhibition rate): 30% | Gastric lesion area ([1]; oral, dose 50 mg/kg): 163.9 ± 15.6 mm^2 | inhibition at 50 mg/kg ([3]; Rattus norvegicus, dose 50 mg/kg, read-out: Lesion inhibition rate): 49.6% | Gastric lesion area ([3]; dose 50 mg/kg): 30.2 ± 6.4* mm^2

CO[C@@]12[C@H](COC(N)=O)C3=C(C(=O)C(C)=C(N)C3=O)N1C[C@@H]1N[C@@H]12 [Mitomycin C, reference compound]
Results (chromosomal aberration) ([2]; −S9, dose 0.5 μg/ml): positive

C=C1CC[C@H]2C(=C)C(=O)O[C@@H]2C2[C@H]1CC[C@@]2(C)O (stereo partly drawn) [CD-102]
Results (chromosomal aberration) ([2]; +S9, dose 5 μg/ml): negative | Results (chromosomal aberration) ([2]; +S9, dose 10 μg/ml): negative | Results (chromosomal aberration) ([2]; +S9, dose 20 μg/ml): negative | induction of chromosomal aberration [2]: do not induce the chromosomal aberration | Results (chromosomal aberration) ([2]; −S9, dose 1.25 μg/ml): negative | Results (chromosomal aberration) ([2]; −S9, dose 2.5 μg/ml): negative | Results (chromosomal aberration) ([2]; −S9, dose 5 μg/ml): negative | inhibition at 1 mg/kg [1, 4]: 43% | inhibition at 3 mg/kg [1, 5]: 70.4% | inhibition at 10 mg/kg [1, 6]: 94.9% | ED50 ([1]; Rattus norvegicus, oral): 1.31 mg/kg | Gastric lesion area ([1]; oral, dose 1 mg/kg): 133.5 ± 21.0* mm^2 | Gastric lesion area ([1]; oral, dose 3 mg/kg): 69.4 ± 18.4* mm^2 | Gastric lesion area ([1]; oral, dose 10 mg/kg): 11.9 ± 10.0* mm^2 | inhibition at 1 mg/kg [3, 7]: 41.6% | inhibition at 3 mg/kg [3, 8]: 56.1% | inhibition at 10 mg/kg [3, 9]: 77.2% | ED50 ([3]; Rattus norvegicus): 1.82 mg/kg | Gastric lesion area ([3]; dose 1 mg/kg): 35.0 ± 5.2 mm^2 | Gastric lesion area ([3]; dose 3 mg/kg): 26.3 ± 6.8* mm^2 | Gastric lesion area ([3]; dose 10 mg/kg): 13.6 ± 2.9* mm^2

C=C1C(=O)O[C@@H]2/C=C(\C)CC/C=C(\C)C[C@@H](OC(C)=O)C12 (stereo partly drawn) [reference compound]
Result (chromosomal aberration test) ([2]; Table 5, + S9): positive positive | Result (chromosomal aberration test) ([2]; Table 5, − S9): positive positive

CC(C)=C1C(=O)COC1=O
Lesion inhibition rate [1]: no effect

C=C1C(=O)O[C@@H]2/C=C(\C)CCC(O)C(C)(O)C[C@@H](OC(C)=O)C12 (stereo partly drawn) [reference compound]
Result (chromosomal aberration test) ([2]; Table 5, + S9): positive positive | Result (chromosomal aberration test) ([2]; Table 5, − S9): positive positive

CN(C)c1ccc(/C=C2\CCOC2=O)cc1
Lesion inhibition rate [1]: no effect

C=C1CC[C@@H]2[C@](C)(CO)[C@H](O)CC[C@@]2(C)[C@@H]1C/C=C1/C(=O)OC[C@H]1O
Lesion inhibition rate [1]: no effect

CC(=O)O[C@@H]1/C=C(\C)CCC/C(C)=C/[C@H]2OC(=O)[C@H](CN(C)C)C12 (stereo partly drawn) [reference compound]
Result (chromosomal aberration test) ([2]; Table 5, + S9): positive positive | Result (chromosomal aberration test) ([2]; Table 5, − S9): positive positive
